According to patent US7615643B2 (SmithKline Beecham Corporation, priority 2006, dated 2009):

Molecular target: T1, PLK1 (Homo sapiens, UniProt P53350)
T1 construct: PLK kinase domain (amino acids 21-346 preceded by MKKGHHHHHHD); made in house; host or cells: baculovirus infected T. ni cells
Experiment: Assay for inhibition of PLK1 (SPA kinase assay)
Type: biochemical
Conditions: 1 μM ATP, 2 nM PLK1 kinase domain
Procedure, shortened: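 His-tagged PLK1 kinase domain (aa 21-346, baculovirus/T. ni) at 2 nM with 1 μM ATP plus 33P-γ-ATP and 1 μM biotinylated peptide in 25 mM HEPES pH 7.2, 15 mM MgCl2, 1 mM DTT, 0.15 mg/mL BSA; 1-1.5 h at 22° C. Streptavidin SPA capture read; percent inhibition versus DMSO, EDTA background.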

T1 sequence (P53350 21-346): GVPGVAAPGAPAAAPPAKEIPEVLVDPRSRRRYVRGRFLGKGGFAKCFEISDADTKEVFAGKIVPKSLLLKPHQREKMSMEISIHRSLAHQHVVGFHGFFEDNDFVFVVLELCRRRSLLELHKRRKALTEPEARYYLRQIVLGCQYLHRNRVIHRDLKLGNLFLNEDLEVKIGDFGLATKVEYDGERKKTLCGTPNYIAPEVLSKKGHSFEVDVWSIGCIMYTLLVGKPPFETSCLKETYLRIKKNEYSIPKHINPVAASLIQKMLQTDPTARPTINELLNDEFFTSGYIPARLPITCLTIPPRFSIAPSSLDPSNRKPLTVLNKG

| PLK1 pIC50 | SMILES |
| --- | --- |
| +++ (pIC50>7) | C[C@@H](Oc1cc(-n2cnc3ccc(S(C)(=O)=O)cc32)sc1C(N)=O)c1cccc(OC2CCNCC2)c1Cl [Example 60, 3-({(1R)-1-[2-chloro-3-(4-piperidineloxy)phenyl]ethyl}oxy)-5-[6-(methylsulfonyl)-1H-benzimidazol-1-yl]-2-thiophenecarboxamide] |

Same assay, conditions: 1 μM ATP, 2 nM PLK1 kinase domain, read-out: PLK1 pIC50 (converted)

| SMILES | IC50 [nM] |
| --- | --- |
| C[C@@H](Oc1cc(-n2cnc3cc(OC(F)(F)F)ccc32)sc1C(N)=O)c1cccc(OC2CCNCC2)c1Cl [Example 61, 3-({(1R)-1-[2-chloro-3-(4-piperidinyloxy)phenyl]ethyl}oxy)-5-{5-[(trifluoromethyl)oxy]-1H-benzimidazol-1-yl}-2-thiophenecarboxamide] | < 100 |
| C[C@@H](Oc1cc(-n2cnc3cc(F)c(F)cc32)sc1C(N)=O)c1cccc(OC2CCNCC2)c1Cl [Example 65, 3-({(1R)-1-[2-chloro-3-(4-piperidinyloxy)phenyl]ethyl}oxy)-5-(5,6-difluoro-1H-benzimidazol-1-yl)-2-thiophenecarboxamide] | < 100 |
| C[C@@H](Oc1cc(-n2cnc3cc(Cl)c(F)cc32)sc1C(N)=O)c1cccc(OC2CCNCC2)c1Cl [Example 67, 5-(5-Chloro-6-fluoro-1H-benzimidazol-1-yl)-3-({(1R)-1-[2-chloro-3-(4-piperidinyloxy)phenyl]ethyl}oxy)-2-thiophenecarboxamide] | < 100 |
| C[C@@H](Oc1cc(-n2cnc3cc(F)c(Cl)cc32)sc1C(N)=O)c1cccc(OC2CCNCC2)c1Cl [Example 69, 5-(6-Chloro-5-fluoro-1H-benzimidazol-1-yl)-3-({(1R)-1-[2-chloro-3-(4-piperidinyloxy)phenyl]ethyl}oxy)-2-thiophenecarboxamide] | < 100 |
| CC(Oc1cc(-n2cnc3cc(-c4cnn(C)c4)ccc32)sc1C(N)=O)c1ccnc(OC2CCN(C)CC2)c1 (stereo not shown) [Example 80, 3-[(1-{2-[(1-Methyl-4-piperidinyl)oxy]-4-pyridinyl}ethyl)oxy]-5-[5-(1-methyl-1H-pyrazol-4-yl)-1H-benzimidazol-1-yl]-2-thiophenecarboxamide] | < 100 |
| Cn1cc(-c2ccc3c(c2)ncn3-c2cc(OCc3cccc(OC4CCNCC4)c3)c(C(N)=O)s2)cn1 [Example 83, 5-[5-(1-Methyl-1H-pyrazol-4-yl)-1H-benzimidazol-1-yl]-3-({[3-(4-piperidinyloxy)phenyl]methyl}oxy)-2-thiophenecarboxamide] | < 100 |
| CN1CCC(Oc2cccc(COc3cc(-n4cnc5cc(-c6cnn(C)c6)ccc54)sc3C(N)=O)c2)CC1 [Example 84, 3-[({3-[(1-Methyl-4-piperidinyl)oxy]phenyl}methyl)oxy]-5-[5-(1-methyl-1H-pyrazol-4-yl)-1H-benzimidazol-1-yl]-2-thiophenecarboxamide] | < 100 |
| CC(Oc1cc(-n2cnc3cc(-c4cnn(C)c4)ccc32)sc1C(N)=O)c1cc(OC2CCNCC2)ccn1 (stereo not shown) [Example 85, 5-[5-(1-Methyl-1H-pyrazol-4-yl)-1H-benzimidazol-1-yl]-3-({1-[4-(4-piperidinyloxy)-2-pyridinyl]ethyl}oxy)-2-thiophenecarboxamide] | < 100 |
| Cc1nnc(-c2ccc3c(c2)ncn3-c2cc(O[C@H](C)c3cccc(OC4CCNCC4)c3Cl)c(C(N)=O)s2)o1 [Example 87, 3-({(1R)-1-[2-Chloro-3-(4-piperidinyloxy)phenyl]ethyl}oxy)-5-[5-(5-methyl-1,3,4-oxadiazol-2-yl)-1H-benzimidazol-1-yl]-2-thiophenecarboxamide] | < 100 |

The next lines start with the values.

| IC50 [nM] | SMILES |
| --- | --- |
| < 100 | C[C@@H](Oc1cc(-n2cnc3ccc(CS(C)(=O)=O)cc32)sc1C(N)=O)c1cccc(OC2CCN(C)CC2)c1Cl [Example 55, 3-[((1R)-1-{2-chloro-3-[(1-methyl-4-piperidinyl)oxy]phenyl}ethyl)oxy]-5,6-{6-[(methylsulfonyl)methyl]-1H-benzimidazol-1-yl}-2-thiophenecarboxamide] |
| < 100 | C[C@@H](Oc1cc(-n2cnc3ccc(CS(C)(=O)=O)cc32)sc1C(N)=O)c1cccc(OCC2CCNCC2)c1Cl [Example 56, 3-[((1R)-1-{2-chloro-3-[(4-piperidinylmethyl)oxy]phenyl}ethyl)oxy]-5-{6-[(methylsulfonyl)methyl]-1H-benzimidazol-1-yl}-2-thiophenecarboxamide] |
| < 100 | C[C@@H](Oc1cc(-n2cnc3ccc(CS(C)(=O)=O)cc32)sc1C(N)=O)c1cccc(OCC2CCCN2C)c1Cl (stereo partly drawn) [Example 57, 3-({(1R)-1-[2-Chloro-3-({[(2S)-1-methyl-2-pyrrolidinyl]metliyl}oxy)phenyl]ethyl}oxy)-5-{6-[(methylsulfonyl)methyl]-1H-benzimidazol-1-yl}-2-thiophenecarboxamide] |
| < 100 | C[C@@H](Oc1cc(-n2cnc3cc(OC(F)(F)F)ccc32)sc1C(N)=O)c1cccc(OC2CCN(C)CC2)c1Cl [Example 62, 3-[((1R)-1-{2-chloro-3-[(1-methyl-4-piperidinyl)oxy]phenyl}ethyl)oxy]-5-{5-[(trifluoromethyl)oxy]-1H-benzimidazol-1-yl}-2-thiophenecarboxamide] |
| < 100 | C[C@@H](Oc1cc(-n2cnc3ccc(OC(F)(F)F)cc32)sc1C(N)=O)c1cccc(OC2CCNCC2)c1Cl [Example 63, 3-({(1R)-1-[2-chloro-3-(4-piperidinyloxy)phenyl]ethyl}oxy)-5-{6-[(trifluoromethyl)oxy]-1H-benzimidazol-1-yl}-2-thiophenecarboxamide] |
| < 100 | C[C@@H](Oc1cc(-n2cnc3ccc(OC(F)(F)F)cc32)sc1C(N)=O)c1cccc(OC2CCN(C)CC2)c1Cl [Example 64, 3-[((1R)-1-{2-chloro-3-[(1-methyl-4-piperidinyl)oxy]phenyl}ethyl)oxy]-5-{6-[(trifluoromethyl)oxy]-1H-benzimidazol-1-yl}-2-thiophenecarboxamide] |
| < 100 | C[C@@H](Oc1cc(-n2cnc3cc(F)c(F)cc32)sc1C(N)=O)c1cccc(OC2CCN(C)CC2)c1Cl [Example 66, 3-[((1R)-1-{2-chloro-3-[(1-methyl-4-piperidinyl)oxy]phenyl}ethyl)-oxy]-5-(5,6-difluoro-1H-benzimidazol-1-yl)-2-thiophenecarboxamide] |
| < 100 | C[C@@H](Oc1cc(-n2cnc3cc(Cl)c(F)cc32)sc1C(N)=O)c1cccc(OC2CCN(C)CC2)c1Cl [Example 68, 5-(5-Chloro-6-fluoro-1H-benzimidazol-1-yl)-3-[((1R)-1-{2-chloro-3-[(1-methyl-4-piperidinyl)oxy]phenyl}ethyl)oxy]-2-thiophenecarboxamide] |
| < 100 | C[C@@H](Oc1cc(-n2cnc3cc(F)c(Cl)cc32)sc1C(N)=O)c1cccc(OC2CCN(C)CC2)c1Cl [Example 70, 5-(6-Chloro-5-fluoro-1H-benzimidazol-1-yl)-3-[((1R)-1-{2-chloro-3-[(1-methyl-4-piperidinyl)oxy]phenyl}ethyl)oxy]-2-thiophenecarboxamide] |
| < 100 | C[C@@H](Oc1cc(-n2cnc3cc(Cl)c(Cl)cc32)sc1C(N)=O)c1cccc(OC2CCNCC2)c1Cl [Example 71, 3-({(1R)-1-[2-Chloro-3-(4-piperidinyloxy)phenyl]ethyl}oxy)-5-(5,6-dichloro-1H-benzimidazol-1-yl)-2-thiophenecarboxamide] |
| < 100 | C[C@@H](Oc1cc(-n2cnc3cc(Cl)c(Cl)cc32)sc1C(N)=O)c1cccc(OC2CCN(C)CC2)c1Cl [Example 72, 3-[((1R)-1-{2-chloro-3-[(1-methyl-4-piperidinyl)oxy]phenyl}ethyl)oxy]-5-(5,6-dichloro-1H-benzimidazol-1-yl)-2-thiophenecarboxamide] |
| < 100 | Cc1nnc(-c2ccc3c(c2)ncn3-c2cc(O[C@H](C)c3cccc(OC4CCN(C)CC4)c3Cl)c(C(N)=O)s2)o1 [Example 88, 3-[((1R)-1-{2-chloro-3-[(1-methyl-4-piperidinyl)oxy]phenyl}ethyl)oxy]-5-[5-(5-methyl-1,3,4-oxadiazol-2-yl)-1H-benzimidazol-1-yl]-2-thiophenecarboxamide] |
